The source of these data is ChEMBL document CHEMBL5380778, “Structure-Directed Discovery of Potent Soluble Epoxide Hydrolase Inhibitors for the Treatment of Inflammatory Diseases” (J Med Chem, 2023).

pIC50: −log10 of the molar value.

Assay [1] has as its target T1, Bifunctional epoxide hydrolase 2 (Mus musculus, UniProt P34914).
T1 sequence (P34914 whole entry): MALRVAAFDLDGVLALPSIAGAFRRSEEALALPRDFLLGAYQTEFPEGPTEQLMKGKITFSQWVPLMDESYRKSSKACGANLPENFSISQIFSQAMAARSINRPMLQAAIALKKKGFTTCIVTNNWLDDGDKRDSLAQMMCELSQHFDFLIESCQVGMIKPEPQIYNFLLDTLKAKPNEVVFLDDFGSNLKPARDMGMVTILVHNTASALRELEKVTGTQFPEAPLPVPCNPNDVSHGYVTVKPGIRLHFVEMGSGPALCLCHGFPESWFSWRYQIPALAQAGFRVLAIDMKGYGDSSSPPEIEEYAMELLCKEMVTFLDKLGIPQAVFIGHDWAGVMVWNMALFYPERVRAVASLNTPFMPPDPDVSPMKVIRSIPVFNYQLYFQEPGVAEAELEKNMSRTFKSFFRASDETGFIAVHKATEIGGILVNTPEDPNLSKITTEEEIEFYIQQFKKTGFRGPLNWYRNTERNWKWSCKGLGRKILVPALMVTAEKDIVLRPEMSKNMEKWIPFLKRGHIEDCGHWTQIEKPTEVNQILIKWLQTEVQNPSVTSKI
Nature of the assay: Inhibition of recombinant mouse soluble epoxide hydrolase using PHOME as substrate assessed as 6-methoxynaphthaldehyde product formation preincubated with compound for 10 mins followed by substrate addition and measured by fluorescence based analysis.

Assay [2] addresses T2, Bifunctional epoxide hydrolase 2 (Homo sapiens, UniProt P34913).
T2 sequence (P34913 whole entry): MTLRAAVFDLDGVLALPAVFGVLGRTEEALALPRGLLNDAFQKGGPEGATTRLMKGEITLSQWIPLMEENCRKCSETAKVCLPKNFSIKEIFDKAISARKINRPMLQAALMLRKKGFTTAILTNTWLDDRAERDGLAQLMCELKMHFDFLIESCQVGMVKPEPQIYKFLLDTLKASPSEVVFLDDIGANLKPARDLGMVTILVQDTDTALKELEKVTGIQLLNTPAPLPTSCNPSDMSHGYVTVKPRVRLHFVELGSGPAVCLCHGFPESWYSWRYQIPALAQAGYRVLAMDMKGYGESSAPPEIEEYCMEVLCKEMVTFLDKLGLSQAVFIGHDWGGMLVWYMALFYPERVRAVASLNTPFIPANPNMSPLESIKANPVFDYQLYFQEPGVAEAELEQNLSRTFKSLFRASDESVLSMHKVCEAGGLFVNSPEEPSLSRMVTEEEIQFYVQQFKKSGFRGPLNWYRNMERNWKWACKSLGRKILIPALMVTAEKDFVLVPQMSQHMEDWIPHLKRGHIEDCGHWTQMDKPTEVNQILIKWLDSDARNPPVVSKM
The assay is described as follows: Inhibition of recombinant human soluble epoxide hydrolase using PHOME as substrate assessed as 6-methoxynaphthaldehyde product formation preincubated with compound for 10 mins followed by substrate addition and measured by fluorescence based analysis.

On to `C[C@]12C[C@@H]3C[C@](C)(C1)C[C@@](NC(=O)Nc1ccc(C(=O)NC4CCC(C(=O)NCCO)CC4)cc1F)(C3)C2` (stereo partly drawn), for which the pIC50 (in general, −log10 of the IC50, conventionally taken in molar units) in assay [1] was 9.74; in assay [2], 9.10.
As to `CN(C)C(=O)C1CCCN(Cc2ccc(NC(=O)N[C@@]34C[C@@H]5C[C@@](C)(C[C@@](C)(C5)C3)C4)c(F)c2)C1` (stereo partly drawn), the values for the negative logarithm of the IC50 (pIC50) in assay [1] and in assay [2] were 9.92 and 9.15, respectively.
The matching figures for `COC(=O)N1CCC(CC(=O)N2CCCN(Cc3ccc(NC(=O)N[C@@]45C[C@@H]6C[C@@](C)(C[C@@](C)(C6)C4)C5)c(F)c3)CC2)CC1`: 9.39 and 8.96.
For `C[C@]12C[C@@H]3C[C@](C)(C1)C[C@@](NC(=O)Nc1ccc(CN4CCC(C(=O)NC(CO)(CO)CO)CC4)cc1F)(C3)C2` the same measures were 9.92 and 8.19.
For `C[C@]12C[C@@H]3C[C@](C)(C1)C[C@@](NC(=O)Nc1ccc(CN4CCCC(C(=O)NCCO)C4)cc1F)(C3)C2` (stereo partly drawn) the same measures were 9.74 and 9.20.
Turning to `C[C@]12C[C@@H]3C[C@](C)(C1)C[C@@](NC(=O)Nc1ccc(C(=O)NC4CCC(C(N)=O)CC4)cc1F)(C3)C2` (stereo partly drawn), the pIC50 was 9.46 in assay [1] and 9.08 in assay [2].
`CCC(=O)N1CCC(CC(=O)N2CCCN(Cc3ccc(NC(=O)N[C@@]45C[C@@H]6C[C@@](C)(C[C@@](C)(C6)C4)C5)c(F)c3)CC2)CC1`: the pIC50 in assay [1] was 10.15; in assay [2], 9.48.
The matching figures for `C[C@]12C[C@@H]3C[C@](C)(C1)C[C@@](NC(=O)Nc1ccc(CN4CCCC(C(=O)N(CCO)CCO)C4)cc1F)(C3)C2` (stereo partly drawn): 9.54 and 9.55.
`C[C@]12C[C@@H]3C[C@](C)(C1)C[C@@](NC(=O)Nc1ccc(C(=O)N4CCCC(C(=O)N5CCN(CCO)CC5)C4)cc1F)(C3)C2` (stereo partly drawn): the negative logarithm of the IC50 (pIC50) in assay [1] was 9.82; in assay [2] it was 9.08.
The matching figures for `CC(=O)N1CCCN(C(=O)C2CCCN(C(=O)c3ccc(NC(=O)N[C@@]45C[C@@H]6C[C@@](C)(C[C@@](C)(C6)C4)C5)c(F)c3)C2)CC1` (stereo partly drawn): 9.59 and 9.22.
The matching figures for `C[C@]12C[C@@H]3C[C@](C)(C1)C[C@@](NC(=O)Nc1ccc(CN4CCC(C(N)=O)CC4)cc1F)(C3)C2`: 10.22 and 8.81.
The matching figures for `CCC(C)C(=O)N1CCC(CC(=O)N2CCCN(Cc3ccc(NC(=O)N[C@@]45C[C@@H]6C[C@@](C)(C[C@@](C)(C6)C4)C5)c(F)c3)CC2)CC1` (stereo partly drawn): 9.80 and 9.11.
For `CN(C)CCN1CCC(CC(=O)N2CCCN(Cc3ccc(NC(=O)N[C@@]45C[C@@H]6C[C@@](C)(C[C@@](C)(C6)C4)C5)c(F)c3)CC2)CC1`, the negative logarithm of the IC50 (pIC50) is 9.17 in assay [1] and 8.59 in assay [2].
The matching figures for `CCC(C)C(=O)N1CCCN(C(=O)C2CCCN(C(=O)c3ccc(NC(=O)N[C@@]45C[C@@H]6C[C@@](C)(C[C@@](C)(C6)C4)C5)c(F)c3)C2)CC1` (stereo partly drawn): 9.05 and 8.85.
The matching figures for `C=C(C)C(=O)N1CCCN(C(=O)C2CCCN(Cc3ccc(NC(=O)N[C@@]45C[C@@H]6C[C@@](C)(C[C@@](C)(C6)C4)C5)c(F)c3)C2)CC1` (stereo partly drawn): 8.89 and 9.05.
With `C[C@]12C[C@@H]3C[C@](C)(C1)C[C@@](NC(=O)Nc1ccc(CN4CCCC(C(=O)NC(CO)CO)C4)cc1F)(C3)C2` (stereo partly drawn), the pIC50 was 9.46 in assay [1] and 9.55 in assay [2].
The matching figures for `CC(O)CNC(=O)C1CCN(Cc2ccc(NC(=O)N[C@@]34C[C@@H]5C[C@@](C)(C[C@@](C)(C5)C3)C4)c(F)c2)CC1` (stereo partly drawn): 9.33 and 8.22.
The matching figures for `CC(O)CNC(=O)C1CCC(NC(=O)c2ccc(NC(=O)N[C@@]34C[C@@H]5C[C@@](C)(C[C@@](C)(C5)C3)C4)c(F)c2)CC1` (stereo partly drawn): 9.36 and 8.81.
In the case of `C[C@]12C[C@@H]3C[C@](C)(C1)C[C@@](NC(=O)Nc1ccc(CN4CCC(C(=O)NC(CO)CO)CC4)cc1F)(C3)C2`, the negative logarithm of the IC50 (pIC50) was 8.65 in assay [1] and 7.50 in assay [2].
On to `CC(O)CNC(=O)C1CCCN(Cc2ccc(NC(=O)N[C@@]34C[C@@H]5C[C@@](C)(C[C@@](C)(C5)C3)C4)c(F)c2)C1` (stereo partly drawn), for which the pIC50 is 9.24 in assay [1] and 9.55 in assay [2].
The matching figures for `CCN(CC)CCN1CCC(CC(=O)N2CCCN(Cc3ccc(NC(=O)N[C@@]45C[C@@H]6C[C@@](C)(C[C@@](C)(C6)C4)C5)c(F)c3)CC2)CC1`: 8.86 and 8.68.
Turning to `C[C@]12C[C@@H]3C[C@](C)(C1)C[C@@](NC(=O)Nc1ccc(CN4CCCC(C(=O)N5CCN(CCO)CC5)C4)cc1F)(C3)C2` (stereo partly drawn), the negative logarithm of the IC50 (pIC50) in assay [1] is 9.26; in assay [2], 9.01.
The matching figures for `C[C@]12C[C@@H]3C[C@](C)(C1)C[C@@](NC(=O)Nc1ccc(CN4CCC(C(=O)N(CCO)CCO)CC4)cc1F)(C3)C2`: 9.26 and 8.17.
The matching figures for `C[C@]12C[C@@H]3C[C@](C)(C1)C[C@@](NC(=O)Nc1ccc(C(=O)N4CCC(C(=O)NCCO)CC4)cc1F)(C3)C2`: 9.59 and 8.46.
The matching figures for `CCN(CC)C(=O)C1CCCN(C(=O)c2ccc(NC(=O)N[C@]34C[C@@H]5C[C@@](C)(C[C@@](C)(C5)C3)C4)c(F)c2)C1` (stereo partly drawn): 9.42 and 9.46.
In the case of `C[C@]12C[C@@H]3C[C@](C)(C1)C[C@@](NC(=O)Nc1ccc(CN4CCCN(C(=O)CC5CCN(CCO)CC5)CC4)cc1F)(C3)C2`, the pIC50 is 9.21 in assay [1] and 8.33 in assay [2].
Regarding `C[C@]12C[C@@H]3C[C@](C)(C1)C[C@@](NC(=O)Nc1ccc(C(=O)NC4CCC(C(=O)NC(CO)(CO)CO)CC4)cc1F)(C3)C2` (stereo partly drawn), the pIC50 in assay [1] was 9.92; in assay [2] it was 9.46.
On to `CC(CN(C)C)N1CCC(CC(=O)N2CCCN(C(=O)c3ccc(NC(=O)N[C@@]45C[C@@H]6C[C@@](C)(C[C@@](C)(C6)C4)C5)c(F)c3)CC2)CC1` (stereo partly drawn), for which the pIC50 was 9.10 in assay [1] and 7.71 in assay [2].
As to `C=CC(=O)N1CCCN(C(=O)C2CCCN(Cc3ccc(NC(=O)N[C@@]45C[C@@H]6C[C@@](C)(C[C@@](C)(C6)C4)C5)c(F)c3)C2)CC1` (stereo partly drawn), the results for the pIC50 in assay [1] and in assay [2] were 8.96 and 9.38, respectively.
The matching figures for `C[C@]12C[C@@H]3C[C@](C)(C1)C[C@@](NC(=O)Nc1ccc(CN4CCCC(C(=O)NC(CO)(CO)CO)C4)cc1F)(C3)C2` (stereo partly drawn): 9.49 and 9.85.
`CCC(=O)N1CCC(CC(=O)N2CCCN(C(=O)c3ccc(NC(=O)N[C@@]45C[C@@H]6C[C@@](C)(C[C@@](C)(C6)C4)C5)c(F)c3)CC2)CC1`: the negative logarithm of the IC50 (pIC50) in assay [1] was 9.41; in assay [2], 9.05.
The matching figures for `C[C@]12C[C@@H]3C[C@](C)(C1)C[C@@](NC(=O)Nc1ccc(CN4CCCC(C(=O)O)C4)cc1F)(C3)C2` (stereo partly drawn): 9.21 and 8.64.
The matching figures for `C[C@]12C[C@@H]3C[C@](C)(C1)C[C@@](NC(=O)Nc1ccc(C(=O)NC4CCC(C(=O)NC(CO)CO)CC4)cc1F)(C3)C2` (stereo partly drawn): 9.26 and 9.04.
The matching figures for `CC(C)(C)OC(=O)N1CCN(CCNC(=O)C2CCC(NC(=O)c3ccc(NC(=O)N[C@@]45C[C@@H]6C[C@@](C)(C[C@@](C)(C6)C4)C5)c(F)c3)CC2)CC1` (stereo partly drawn): 8.70 and 6.74.
For the compound `CC(O)CNC(=O)C1CCCN(C(=O)c2ccc(NC(=O)N[C@]34C[C@@H]5C[C@@](C)(C[C@@](C)(C5)C3)C4)c(F)c2)C1` (stereo partly drawn), the pIC50 in assay [1] was 9.64; in assay [2] it was 9.55.
The matching figures for `CCN(CC)C(=O)C1CCN(C(=O)c2ccc(NC(=O)N[C@@]34C[C@@H]5C[C@@](C)(C[C@@](C)(C5)C3)C4)c(F)c2)CC1`: 9.28 and 8.66.
For the compound `C[C@]12C[C@@H]3C[C@](C)(C1)C[C@@](NC(=O)Nc1ccc(C(=O)N4CCCC(C(=O)O)C4)cc1F)(C3)C2` (stereo partly drawn), the negative logarithm of the IC50 (pIC50) in assay [1] was 8.89; in assay [2], 8.34.
In the case of `CCN(CC)C(=O)C1CCCN(Cc2ccc(NC(=O)N[C@@]34C[C@@H]5C[C@@](C)(C[C@@](C)(C5)C3)C4)c(F)c2)C1` (stereo partly drawn), the pIC50 is 9.25 in assay [1] and 9.46 in assay [2].
For `CCC(C)C(=O)N1CCCN(C(=O)C2CCCN(Cc3ccc(NC(=O)N[C@@]45C[C@@H]6C[C@@](C)(C[C@@](C)(C6)C4)C5)c(F)c3)C2)CC1` (stereo partly drawn) the same measures were 9.21 and 9.60.
